This assay concerns Acinetobacter baumannii ATCC 17961. Nature of the assay: Antimicrobial susceptibility testing: 90% growth inhibitory concentration (IC90) determination. The assay is classed as cell-based. To be noted: ATCC17961, Acinetobacter baumannii ATCC 17961, Iso-Sensitest broth, read-out: ATCC 17961 IC90. As to the method: Antimicrobial Susceptibility Testing:
90% Growth Inhibitory Concentration (IC90) Determination
The in vitro antimicrobial activity of the compounds was determined according to the following procedure:
The assay used a 10-points Iso-Sensitest broth medium to measure quantitatively the in vitro activity of the compounds against Acinetobacter baumannii ATCC 17961.
Stock compounds in DMSO were serially twofold diluted (e.g. range from 50 to 0.097 μM final concentration) in 384 wells microtiter plates and inoculated with 49 μl the bacterial suspension in Iso-Sensitest medium to have a final cell concentration of ˜5×10^(5) CFU/ml in a final volume/well of 50 ul/well. Microtiter plates were incubated at 35±2° C.
Bacterial cell growth was determined with the measurement of optical density at X=600 nm each 20 minutes over a time course of 16 h. Growth inhibition was calculated during the logarithmic growth of the bacterial cells with determination of the concentration inhibiting 50% (IC50) and 90% (IC90) of the growth.
Table 1 provides the 90% growth inhibitory concentrations (IC90) in micromoles per liter of the compounds of present disclosure obtained against the strain Acinetobacter baumannii ATCC 17961.

Where a name gives a salt, the structure may show the parent alone.

Turning to `Cn1c(-c2cn(C3CC3(F)F)nc2C(F)(F)F)cnc1C(=O)Nc1ccc(C(=O)N2CC3C(C2)C3NC(=O)N[C@H]2CNC[C@@H]2O)c(Cl)c1` (mixture of isomers) [Example 300, rac-N-(3-chloro-4-(6-(3-((3R,4R)-4-hydroxypyrrolidin-3-yl)ureido)-3-azabicyclo[3.1.0]hexane-3-carbonyl)phenyl)-5-(1-(2,2-difluorocyclopropyl)-3-(trifluoromethyl)-1H-pyrazol-4-yl)-1-methyl-1H-imidazole-2-carboxamide formate], the IC90 (commonly the point of the concentration-response curve where the effect stands at 90%) worked out at 0.367 µM.

Consider `Cn1c(-c2cn(CC(F)F)nc2C(F)(F)F)cnc1C(=O)Nc1ccc(C(=O)N2CCN(C(=O)N[C@H]3CCNC3)CC2)c(Cl)c1` [Example 142, 4-[2-chloro-4-[[5-[1-(2,2-difluoroethyl)-3-(trifluoromethyl)pyrazol-4-yl]-1-methylimidazole-2-carbonyl]amino]benzoyl]-N-[(3S)-pyrrolidin-3-yl]piperazine-1-carboxamide;formic acid], for which the IC90 came out at 0.343 µM.

Regarding `Cc1cc(NC(=O)c2ncc(-c3cn(CC(F)F)nc3C(F)(F)F)n2C)ccc1S(C)(=O)=NCCCN` (stereo not shown) [Example 353, N-[4-[N-(3-aminopropyl)-S-methyl-sulfonimidoyl]-3-methyl-phenyl]-5-[1-(2,2-difluoroethyl)-3-(trifluoromethyl)pyrazol-4-yl]-1-methyl-imidazole-2-carboxamide; formic acid], the IC90 worked out at 0.462 µM.

As to `C#CCn1cc(-c2cnc(C(=O)Nc3ccc(C(=O)NCCOCCN)c(Cl)c3)n2C)c(C(F)(F)F)n1` [Example 48, N-(4-((2-(2-aminoethoxy)ethyl)carbamoyl)-3-chlorophenyl)-1-methyl-5-(1-(prop-2-yn-1-yl)-3-(trifluoromethyl)-1H-pyrazol-4-yl)-1H-imidazole-2-carboxamide trifluoroacetate], the concentration for an effect of 90% (IC90) was determined as 0.231 µM.

For the molecule `CCc1cc(NC(=O)c2ncc(-c3cn(CC#N)nc3C(F)(F)F)n2C)ccc1C(=O)N1CCN(C(=O)NCC2(O)CNC2)CC1` [Example 132, 4-[4-[[5-[1-(cyanomethyl)-3-(trifluoromethyl)pyrazol-4-yl]-1-methylimidazole-2-carbonyl]amino]-2-ethylbenzoyl]-N-[(3-hydroxyazetidin-3-yl)methyl]piperazine-1-carboxamide;formic acid], the IC90 was 1.17 µM.

As to `C#CC(C)n1cc(-c2cnc(C(=O)Nc3ccc(C(=O)N4CCN(C(=O)C5CCNCC5)CC4)c(Cl)c3)n2C)c(C(F)(F)F)n1` (stereo not shown) [Example 9, 5-(1-(but-3-yn-2-yl)-3-(trifluoromethyl)-1H-pyrazol-4-yl)-N-(3-chloro-4-(4-(piperidine-4-carbonyl)piperazine-1-carbonyl)phenyl)-1-methyl-1H-imidazole-2-carboxamide hydrochloride], the IC90 came out at 0.32 µM.

Turning to `C#CCn1cc(-c2cnc(C(=O)Nc3ccc(C(=O)N4CCN(C(=O)NC5CNC5)CC4)c(Cl)c3)n2C)c(C(F)(F)F)n1` [Example 51, N-(Azetidin-3-yl)-4-(2-chloro-4-(1-methyl-5-(1-(prop-2-yn-1-yl)-3-(trifluoromethyl)-1H-pyrazol-4-yl)-1H-imidazole-2-carboxamido)benzoyl)piperazine-1-carboxamide Hydrochloride], the concentration for an effect of 90% (IC90) was 0.122 µM.

`Cn1cc(-c2cnc(C(=O)Nc3ccc(C(=O)N4CCN(C(=O)C5(O)CCNCC5)CC4)c(Cl)c3)n2C)c(C(F)(F)F)n1` [Example 56, N-[3-Chloro-4-[4-(4-hydroxypiperidine-4-carbonyl)piperazine-1-carbonyl]phenyl]-1-methyl-5-[1-methyl-3-(trifluoromethyl)pyrazol-4-yl]imidazole-2-carboxamide 2,2,2-trifluoroacetate]: the 90% effect concentration (IC90) worked out at 1.51 µM.

For `CCc1cc(NC(=O)c2ncc(-c3cn(CC(F)F)nc3C(F)(F)F)n2C)ccc1C(=O)N1CCN(C(=O)C2CCNCC2)CC1` [Example 154, 5-[1-(2,2-difluoroethyl)-3-(trifluoromethyl)pyrazol-4-yl]-N-[3-ethyl-4-[4-(piperidine-4-carbonyl)piperazine-1-carbonyl]phenyl]-1-methylimidazole-2-carboxamide;formic acid], the IC90 came out at 0.955 µM.

Consider `Cn1c(-c2cn(CC(F)F)nc2C(F)(F)F)cnc1C(=O)Nc1ccc(C(=O)N2CCN(CCN)CC2)c(Cl)c1` [Example 290, N-(4-(4-(2-aminoethyl)piperazine-1-carbonyl)-3-chlorophenyl)-5-(1-(2,2-difluoroethyl)-3-(trifluoromethyl)-1H-pyrazol-4-yl)-1-methyl-1H-imidazole-2-carboxamide formate], for which the concentration for an effect of 90% (IC90) was found to be 0.358 µM.

For the molecule `Cn1c(-c2cn(CC3CCC3)nc2C(F)(F)F)cnc1C(=O)Nc1ccc(C(=O)N2CCNCC2)c(Cl)c1` [Example 371, N-(3-chloro-4-(piperazine-1-carbonyl)phenyl)-5-(1-(cyclobutylmethyl)-3-(trifluoromethyl)-1H-pyrazol-4-yl)-1-methyl-1H-imidazole-2-carboxamide dihydrochloride], the IC90 was found to be 0.485 µM.

Turning to `C#CCn1cc(-c2cnc(C(=O)Nc3ccc(C(=O)NC[C@H]4CCNC4)c(Cl)c3)n2C)c(C(F)(F)F)n1` [Example 32, (S)-N-(3-chloro-4-((pyrrolidin-3-ylmethyl)carbamoyl)phenyl)-1-methyl-5-(1-(prop-2-yn-1-yl)-3-(trifluoromethyl)-1H-pyrazol-4-yl)-1H-imidazole-2-carboxamide hydrochloride], the IC90 was determined as 0.896 µM.

With `Cn1c(-c2cn(C3CC3C(F)(F)F)nc2C(F)(F)F)cnc1C(=O)Nc1ccc(C(=O)N2CCN(C(=O)C3CCNCC3)CC2)c(Cl)c1` (stereo not shown) [Example 379, N-(3-chloro-4-(4-(piperidine-4-carbonyl)piperazine-1-carbonyl)phenyl)-1-methyl-5-(3-(trifluoromethyl)-1-(2-(trifluoromethyl)cyclopropyl)-1H-pyrazol-4-yl)-1H-imidazole-2-carboxamide formate], the 90% effect concentration (IC90) is 0.499 µM.

Consider `C#CCn1cc(-c2cnc(C(=O)Nc3ccc(C(=O)NCCOC[C@H](C)N)c(Cl)c3)n2C)c(C(F)(F)F)n1` [Example 47, (S)-N-(4-((2-(2-aminopropoxy)ethyl)carbamoyl)-3-chlorophenyl)-1-methyl-5-(1-(prop-2-yn-1-yl)-3-(trifluoromethyl)-1H-pyrazol-4-yl)-1H-imidazole-2-carboxamide 2,2,2-trifluoroacetate], for which the IC90 is 0.428 µM.

As to `CC(C(N)=O)n1cc(-c2cnc(C(=O)Nc3ccc(C(=O)N4CCN(C(=O)C5CCNCC5)CC4)c(Cl)c3)n2C)c(C(F)(F)F)n1` (stereo not shown) [Example 22, 5-(1-(1-amino-1-oxopropan-2-yl)-3-(trifluoromethyl)-1H-pyrazol-4-yl)-N-(3-chloro-4-(4-(piperidine-4-carbonyl)piperazine-1-carbonyl)phenyl)-1-methyl-1H-imidazole-2-carboxamide formate], the IC90 was found to be 1.29 µM.

With `Cn1c(-c2cn(CC#N)nc2C(F)(F)F)cnc1C(=O)Nc1ccc(C(=O)N[C@H]2CC[C@@H](N)CC2)c(Cl)c1` [Example 351, N-[4-[(4-aminocyclohexyl)carbamoyl]-3-chlorophenyl]-5-[1-(cyanomethyl)-3-(trifluoromethyl)pyrazol-4-yl]-1-methylimidazole-2-carboxamide;2,2,2-trifluoroacetic acid], the IC90 is 0.453 µM.

For the origin of these results see US11390604B2 (Hoffmann-La Roche Inc., priority 2019, dated 2022).
